Drawing on BindingDB's records for doi:10.1016/j.bmc.2007.02.010 (Princeton University, 2007), this text covers Kd for one molecule.

For this test, the target named is T1, E3 ubiquitin-protein ligase XIAP [241-356] (Homo sapiens, UniProt P98170).
T1 construct: 241-356
Nature of the test: Competitive Fluorescent-binding Assay. To be noted: pH 7; 22 °C. As to the method:
AVPC-badan can be displaced from the binding pocket of the protein by test compounds. As the dye is displaced from the binding pocket, the emission is reduced and resembles that of the AVPC-badan dye in solution alone. The AUC for the emission spectra of AVPC-badan alone, AVPC-badan, and for the Smac mimic bound to BIR3-XIAP are used to calculate a relative Kd for the Smac mimic. The relative Kd is then converted to an absolute Kd using the Kd value for AVPC-badan, which was determined in a titration assay.

T1 sequence (P98170 241-356): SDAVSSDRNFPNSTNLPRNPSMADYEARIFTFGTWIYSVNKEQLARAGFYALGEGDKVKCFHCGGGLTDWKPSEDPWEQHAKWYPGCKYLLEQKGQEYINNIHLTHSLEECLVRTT

As a reminder, the Kd is a measure of binding affinity in units of concentration. A higher Kd goes with lower affinity. The molecule `CC[C@@H](C)[C@H](NC(=O)[C@@H]1CCCN1C(=O)c1coc([C@H](C)N)n1)C(=O)O` [(2S,3R)-2-{[(2S)-1-({2-[(1S)-1-aminoethyl]-1,3-oxazol-4-yl}carbonyl)pyrrolidin-2-yl]formamido}-3-methylpentanoic acid] showed a Kd of 300 µM.
